# System: Plasmopara viticola
# Assay: Plasmopara test (grapevine)/protective
# Format: in vivo
# Conditions: Plasmopara viticola on grapevine, protective, active ingredient concentration 100 ppm, 6 days after inoculation
# Description: The plants are then moistened and placed in an incubation cabin for 1 day.
row,Compound,Efficacy [%]
1,COC1(C(=O)NC(C)C)CC(c2cc(Cl)cc(Cl)c2)=NO1 (centres unmarked) [Compound 1.20-5],99

# System: Phytophthora infestans
# Assay: not given
# Format: in vivo
# Conditions: application rate 500 ppm; protective, tomato plants; evaluation 5 days after infection; 0% = control, 100% = no infection
row,Compound,Efficacy [%]
1,"COCC(C)NC(=O)C1(OC)CC(c2cc(F)cc(F)c2)=NO1 (single isomer, unassigned) [1.11-19 D1]",100
2,"COCC(C)NC(=O)C1(OC)CC(c2cc(Cl)cc(Cl)c2)=NO1 (single isomer, unassigned) [1.20-19 D2]",100
3,COC1(C(=O)NCc2ccc(Cl)nc2)CC(c2cc(F)cc(F)c2)=NO1 (centres unmarked) [Compound 1.11-110],100
4,COC1(C(=O)NCc2nc(C)cc(C)n2)CC(c2cc(F)cc(F)c2)=NO1 (centres unmarked) [Compound 1.11-189],100
5,COC1(C(=O)NCc2cccnc2Cl)CC(c2cc(F)cc(F)c2)=NO1 (centres unmarked) [Compound 1.11-238],99
6,CCn1cc(CNC(=O)C2(OC)CC(c3cc(C)cc(F)c3)=NO2)cn1 (centres unmarked) [Compound 1.14-206],100
7,CCn1cc(CNC(=O)C2(OC)CC(c3cc(F)cc(C(F)(F)F)c3)=NO2)cn1 (centres unmarked) [Compound 1.18-206],90
8,COC1(C(=O)NC2(C#N)CC2)CC(c2cc(Cl)cc(Cl)c2)=NO1 (centres unmarked) [Compound 1.20-64],100
9,CCOC1(C(=O)NCc2cnn(CC)c2)CC(c2cc(F)cc(F)c2)=NO1 (centres unmarked) [Compound 2.11-206],100

# System: Botrytis cinerea
# Assay: In vivo protective test, Botrytis cinerea (gray mold in gherkins)
# Conditions: application rate 500 ppm, gherkin plants, evaluation 4-5 days after infection, 0% = control, 100% = no infection
# Description: To produce an appropriate active ingredient formulation, active ingredient is mixed with acetone/Tween/DMSO and diluted with water to the appropriate concentration. Gherkin plants (Vert petit de Paris) are cultivated in 50/50 peat/pozzolan substrate at 24° C. and sprayed at the Z11 stage with the active ingredient formulation specified above. Plants which serve as a control are treated with an aqueous solution without active ingredient. After 24 hours, the plants are sprayed with a spore suspension of Botrytis cinerea (50 000 spores/ml). The spores are suspended in a nutrient solution consisting of 10 g/L PDB, 50 g/L D-Fructose, 2 g/L NH4NO3 and 1 g/L KH2PO4. The inoculated gherkin plants are incubated at 17° C. and at 80% relative air humidity.
row,Compound,Efficacy [%]
1,"COCC(C)NC(=O)C1(OC)CC(c2cc(F)cc(F)c2)=NO1 (single isomer, unassigned) [1.11-19 D1]",100
2,"COCC(C)NC(=O)C1(OC)CC(c2cc(Cl)cc(Cl)c2)=NO1 (single isomer, unassigned) [1.20-19 D2]",100
3,CCOC(=O)CC(C)NC(=O)C1(OC)CC(c2cccc(CC)c2)=NO1 (centres unmarked) [Compound 1.6-96],95
4,COc1cccc(C2=NOC(OC)(C(=O)NCc3ccc(Cl)nc3)C2)c1 (centres unmarked) [Compound 1.7-110],100
5,COC1(C(=O)NCc2ccc(Cl)nc2)CC(c2cc(F)cc(F)c2)=NO1 (centres unmarked) [Compound 1.11-110],90
6,COC1(C(=O)NCc2cccnc2Cl)CC(c2cc(F)cc(F)c2)=NO1 (centres unmarked) [Compound 1.11-238],100
7,COC1(C(=O)NCc2ccnc(Cl)c2)CC(c2cc(C)cc(F)c2)=NO1 (centres unmarked) [Compound 1.14-136],88
8,CCn1cc(CNC(=O)C2(OC)CC(c3cc(C)cc(F)c3)=NO2)cn1 (centres unmarked) [Compound 1.14-206],100
9,CCOC(=O)CCNC(=O)C1(OC)CC(c2cc(F)cc(OC)c2)=NO1 (centres unmarked) [Compound 1.16-94],75
10,CCOC(=O)CC(C)NC(=O)C1(OC)CC(c2cc(F)cc(OC)c2)=NO1 (centres unmarked) [Compound 1.16-96],85
11,COc1cc(F)cc(C2=NOC(OC)(C(=O)NCc3ccc(Cl)nc3)C2)c1 (centres unmarked) [Compound 1.16-110],100
12,CCn1cc(CNC(=O)C2(OC)CC(c3cc(F)cc(C(F)(F)F)c3)=NO2)cn1 (centres unmarked) [Compound 1.18-206],100
13,COC1(C(=O)NC2(C#N)CC2)CC(c2cc(Cl)cc(Cl)c2)=NO1 (centres unmarked) [Compound 1.20-64],70
14,COC1(C(=O)NCc2ccc(Cl)nc2)CC(c2cc(Cl)cc(Cl)c2)=NO1 (centres unmarked) [Compound 1.20-110],83
15,COC1(C(=O)NCc2ccncc2)CC(c2cc(Cl)cc(Cl)c2)=NO1 (centres unmarked) [Compound 1.20-135],100
16,C=CCNC(=O)C1(OC)CC(c2cc(Cl)cc(OC(F)(F)F)c2)=NO1 (centres unmarked) [Compound 1.25-16],100
17,COC1(C(=O)NC2CC2)CC(c2cc(Br)cc(OC(F)(F)F)c2)=NO1 (centres unmarked) [Compound 1.32-60],100
18,CCn1cc(CNC(=O)C2(OC)CC(c3cc(Br)cc(OC(F)(F)F)c3)=NO2)cn1 (centres unmarked) [Compound 1.32-206],96
19,COC1(C(=O)NC2CC2)CC(c2cc(Br)cc(C(F)(F)F)c2)=NO1 (centres unmarked) [Compound 1.33-60],100

# System: Venturia inaequalis
# Assay: Venturia test (apple)/protective
# Conditions: Venturia inaequalis on apple, protective, active ingredient concentration 100 ppm, 10 days after inoculation
# Description: • Solvents: 24.5 parts by weight of acetone • 24.5 parts by weight of dimethylacetamide • Emulsifier: 1 part by weight of alkylaryl polyglycol ether
# To produce an appropriate active ingredient formulation, 1 part by weight of active ingredient is mixed with the stated amounts of solvent and emulsifier, and the concentrate is diluted with water to the desired concentration.
# To test for protective efficacy, young plants are sprayed with the active ingredient formulation at the stated application rate. After the spray coating has dried on, the plants are inoculated with an aqueous conidia suspension of the apple scab pathogen Venturia inaequalis and then remain in an incubation cabin at about 20° C. and 100% relative air humidity for 1 day.
# The plants are then placed in a greenhouse at about 21° C. and a relative air humidity of about 90%.
# Evaluation follows 10 days after the inoculation.
row,Compound,Efficacy [%]
1,COC1(C(=O)NC(C)C)CC(c2cc(Cl)cc(Cl)c2)=NO1 (centres unmarked) [Compound 1.20-5],96

# System: Sphaerotheca fuliginea
# Assay: In vivo protective test, Sphaerotheca fuliginea (powdery mildew in gherkins)
# Conditions: application rate 500 ppm, gherkin plants, evaluation 12 days after inoculation, 0% = control, 100% = no infection
# Description: Example: In vivo protective test, Sphaerotheca fuliginea (powdery mildew in gherkins) To produce an appropriate active ingredient formulation, active ingredient is mixed with acetone/Tween/DMSO and diluted with water to the appropriate concentration. Gherkin plants (cultivar: Vert petit de Paris) are cultivated in 50/50 peat/pozzolan substrate at 24° C. and sprayed at the Z11 cotyledon stage with the active ingredient formulation specified above. Plants which serve as a control are treated with an aqueous solution without active ingredient. After 24 hours, the plants are sprayed with a spore suspension of Sphaerotheca fuliginea (100 000 spores/ml). The spores are collected from infected plants. The inoculated plants are placed at 20/25° C. and at 60/70% relative humidity.
row,Compound,Efficacy [%]
1,"COCC(C)NC(=O)C1(OC)CC(c2cc(F)cc(F)c2)=NO1 (single isomer, unassigned) [1.11-19 D1]",100
2,"COCC(C)NC(=O)C1(OC)CC(c2cc(Cl)cc(Cl)c2)=NO1 (single isomer, unassigned) [1.20-19 D2]",100
3,CCn1cc(CNC(=O)C2(OC)CC(c3cccc(Cl)c3)=NO2)cn1 (centres unmarked) [Compound 1.3-206],94
4,COC1(C(=O)NCc2ccc(Cl)nc2)CC(c2cc(F)cc(F)c2)=NO1 (centres unmarked) [Compound 1.11-110],78
5,COC1(C(=O)NCc2cccnc2Cl)CC(c2cc(F)cc(F)c2)=NO1 (centres unmarked) [Compound 1.11-238],83
6,CCn1cc(CNC(=O)C2(OC)CC(c3cc(C)cc(F)c3)=NO2)cn1 (centres unmarked) [Compound 1.14-206],98
7,CCOC(=O)CC(C)NC(=O)C1(OC)CC(c2cc(F)cc(OC)c2)=NO1 (centres unmarked) [Compound 1.16-96],78
8,COc1cc(F)cc(C2=NOC(OC)(C(=O)NCc3ccc(Cl)nc3)C2)c1 (centres unmarked) [Compound 1.16-110],89
9,CCn1cc(CNC(=O)C2(OC)CC(c3cc(F)cc(C(F)(F)F)c3)=NO2)cn1 (centres unmarked) [Compound 1.18-206],95
10,COC1(C(=O)NC2(C#N)CC2)CC(c2cc(Cl)cc(Cl)c2)=NO1 (centres unmarked) [Compound 1.20-64],98
11,COC1(C(=O)NCc2ccncc2)CC(c2cc(Cl)cc(Cl)c2)=NO1 (centres unmarked) [Compound 1.20-135],98
12,C=CCNC(=O)C1(OC)CC(c2cc(Cl)cc(OC(F)(F)F)c2)=NO1 (centres unmarked) [Compound 1.25-16],95
13,COC1(C(=O)NC2CC2)CC(c2cc(Br)cc(OC(F)(F)F)c2)=NO1 (centres unmarked) [Compound 1.32-60],100
14,COC1(C(=O)NC2CC2)CC(c2cc(Br)cc(C(F)(F)F)c2)=NO1 (centres unmarked) [Compound 1.33-60],100
15,COC(=O)CCCNC(=O)C1(OC)CC(c2cc(Br)cc(C(F)(F)F)c2)=NO1 (centres unmarked) [Compound 1.33-102],100

# System: Septoria tritici
# Assay: In vivo protective test, Septoria tritici (blotch in wheat)
# Conditions: application rate 500 ppm, wheat plants, evaluation 21-28 days after inoculation, 0% = control, 100% = no infection
# Description: To produce an appropriate active ingredient formulation, active ingredient is mixed with acetone/Tween/DMSO and diluted with water to the appropriate concentration. Wheat plants (cultivar: Scipion) are cultivated in 50/50 peat/pozzolan substrate at 22° C. (12 h)/20° C. (12 h) and sprayed at the 1-leaf stage (height 10 cm) with the active ingredient formulation specified above. Control plants are sprayed with an aqueous solution without added active ingredient. After 24 hours, the plants are sprayed with a spore suspension of cryopreserved Septoria tritici (500 000 spores/ml).
row,Compound,Efficacy [%]
1,"COCC(C)NC(=O)C1(OC)CC(c2cc(F)cc(F)c2)=NO1 (single isomer, unassigned) [1.11-19 D1]",100
2,"COCC(C)NC(=O)C1(OC)CC(c2cc(Cl)cc(Cl)c2)=NO1 (single isomer, unassigned) [1.20-19 D2]",100
3,CCn1cc(CNC(=O)C2(OC)CC(c3cccc(Cl)c3)=NO2)cn1 (centres unmarked) [Compound 1.3-206],100
4,CCOC(=O)CC(C)NC(=O)C1(OC)CC(c2cccc(CC)c2)=NO1 (centres unmarked) [Compound 1.6-96],75
5,COc1cccc(C2=NOC(OC)(C(=O)NCc3ccc(Cl)nc3)C2)c1 (centres unmarked) [Compound 1.7-110],100
6,COC1(C(=O)NCc2ccc(Cl)nc2)CC(c2cc(F)cc(F)c2)=NO1 (centres unmarked) [Compound 1.11-110],100
7,COC1(C(=O)NCc2cccnc2Cl)CC(c2cc(F)cc(F)c2)=NO1 (centres unmarked) [Compound 1.11-238],100
8,CCn1cc(CNC(=O)C2(OC)CC(c3cc(C)cc(F)c3)=NO2)cn1 (centres unmarked) [Compound 1.14-206],100
9,CCOC(=O)CC(C)NC(=O)C1(OC)CC(c2cc(F)cc(OC)c2)=NO1 (centres unmarked) [Compound 1.16-96],88
10,COc1cc(F)cc(C2=NOC(OC)(C(=O)NCc3ccc(Cl)nc3)C2)c1 (centres unmarked) [Compound 1.16-110],100
11,COC1(C(=O)NC2(C#N)CC2)CC(c2cc(Cl)cc(Cl)c2)=NO1 (centres unmarked) [Compound 1.20-64],100
12,COC1(C(=O)NCc2ccc(Cl)nc2)CC(c2cc(Cl)cc(Cl)c2)=NO1 (centres unmarked) [Compound 1.20-110],100
13,COC1(C(=O)NCc2ccncc2)CC(c2cc(Cl)cc(Cl)c2)=NO1 (centres unmarked) [Compound 1.20-135],100
14,C=CCNC(=O)C1(OC)CC(c2cc(Cl)cc(OC(F)(F)F)c2)=NO1 (centres unmarked) [Compound 1.25-16],97
15,COC1(C(N)=O)CC(c2cc(Br)cc(OC(F)(F)F)c2)=NO1 (centres unmarked) [Compound 1.32-1],98
16,COC1(C(=O)NC2CC2)CC(c2cc(Br)cc(OC(F)(F)F)c2)=NO1 (centres unmarked) [Compound 1.32-60],100
17,CCn1cc(CNC(=O)C2(OC)CC(c3cc(Br)cc(OC(F)(F)F)c3)=NO2)cn1 (centres unmarked) [Compound 1.32-206],100
18,COC1(C(=O)NC2CC2)CC(c2cc(Br)cc(C(F)(F)F)c2)=NO1 (centres unmarked) [Compound 1.33-60],100
19,COC(=O)CCCNC(=O)C1(OC)CC(c2cc(Br)cc(C(F)(F)F)c2)=NO1 (centres unmarked) [Compound 1.33-102],100
20,CCOC1(C(=O)NCc2cnn(CC)c2)CC(c2cc(F)cc(F)c2)=NO1 (centres unmarked) [Compound 2.11-206],83
